Experimental data as given in patent US20260232666A1, “COMPOSITIONS AND METHODS FOR INHIBITION OF RAS” (TheRas, Inc., priority 2023, published 2026).

tested on: pERK in NCI-H358 cells; assay: Cell-based pERK HTRF assay (pERK inhibition in H358 cells); conditions: Homo sapiens, NCI-H358, 0.5 h, 30 min incubation
Experimental: Biological Example 3: Cell-Based pERK HTRF Assay
pERK assays (Perkin Elmer) were used to determine the effectiveness of compounds of the present disclosure in disrupting KRAS G12C protein/effector signaling in cells.
On Day 1, cells (NCI-H358) were seeded into 96-well plates at 4×10^4 cells/well in complete growth media (RPMI, 10% FBS).
On Day 2, cells were treated with compounds at 0.25% DMSO. The source plate was created with compounds diluted in media at 5-fold the final assay concentration. The compounds were run in a 9-point concentration curve starting at 75 μM, with a 3-fold dilution between concentrations. 20 μL was transferred onto the cell plates (final volume in wells was 100 μL). Plates were harvested after 30 min incubation by aspirating media and adding kit-supplied 1× supplemented lysis buffer to all wells (75 μl per well). Plates were then placed on a plate shaker and incubated at 850 rpm for an additional 30 min.
Antibody mixture solution was prepared by diluting aliquoted d2 and Eu Cryptate antibodies 1:20 in kit supplied detection buffer, then mixed the diluted antibodies solutions (1:1 v:v). 4 μL of this solution was then added to a 384-well detection plate (Perkin Elmer; 6008230).
Samples were homogenized by pipetting up and down and then transferred (16 μL of cell lysates) from the 96-well cell culture plate to two wells of the HTRF 384-well detection plate containing the antibody solution. Plates were centrifuged (524 g for […]) and allowed to incubate between 4 and 24 h at room temperature. Maximum signal is reached after 4 h incubation time and remains stable over a period of 24 hours. Therefore, readings can be made between 4 and 24 h of incubation. Plates were centrifuged again (524 g for 1 min), and analyzed on the En Vision plate reader using the following settings: Excitation 320 nm, Bandwidth 75 nm; Emission 615 nm, Bandwidth 85 nm; Gain 100%; Flashes 100; Lag 60 μs.
The percent of modification of GppNHp, GTP, or GDP loaded KRAS G12C by MALDI-TOF MS, biochemical Raf1 RBD-KRAS G12C-GppNHp disruption assay IC50, and pERK inhibition IC50 of selected compounds described herein are shown in Table 4. For percent of modification at 15 minutes (MALDI-TOF MS) of GppNHp, GTP, or GDP loaded KRAS G12C: A: percent of modification ≥70%; B: 50≤percent of modification <70%; C: 10%≤percent of modification <50%; D: percent of modification <10%. […] For pERK inhibition in H358 cell assay: A: IC50≤0.1 μM; B: 0.1 μM<IC50≤1 μM; C: IC50>1 μM. Blanks in the table represent that compound was not tested in the indicated assay.

| Structure (SMILES) | IC50 [nM] |
| --- | --- |
| C[C@@H]1CN(c2nc(OC[C@@]34CCCN3C[C@H](F)C4)nc3c(F)c(-c4ccc(F)c5sc(N)c(C#N)c45)c(Cl)cc23)[C@@H](C)CN1C(=O)/C=C/c1nc(C(C)(F)F)no1 [Compound 191] | 100 to 1000 |
| C=CC(=O)N1CC[C@@H](N(C)c2nc(O[C@@H](C)[C@@H]3[C@@H](OC)CCN3C)nc3c(F)c(-c4ccc(F)c5sc(N)c(C#N)c45)c(C(F)(F)F)cc23)[C@H]1C [Compound 193] | < 100 |
| C=CC(=O)N1CC[C@@H](N(C)c2nc(O[C@@H](C)[C@@H]3C[C@@H](OC)CN3C)nc3c(F)c(-c4ccc(F)c5sc(N)c(C#N)c45)c(Cl)cc23)[C@H]1C [Compound 194] | < 100 |
| C=CC(=O)N1CC[C@@H](N(C)c2nc(O[C@@H](C)[C@@H]3[C@@H](OC)CCN3C)nc3c(F)c(-c4ccc(F)c5sc(N)c(C#N)c45)c(Cl)cc23)[C@H]1C [Compound 195] | < 100 |
| C=CC(=O)N1CC[C@@H](N(C)c2nc(OC[C@@H]3[C@@H](OC)CCN3C)nc3c(F)c(-c4ccc(F)c5sc(N)c(C#N)c45)c(Cl)cc23)[C@H]1C [Compound 196] | < 100 |
| C=CC(=O)N1CC[C@@H](N(C)c2nc(OC[C@@H]3[C@@H](OC)CCN3C)nc3c(F)c(-c4ccc(F)c5sc(N)c(C#N)c45)c(C(F)(F)F)cc23)[C@H]1C [Compound 197] | < 100 |

target: T1, GTP-loaded KRAS4b (amino acids 1-169) G12C/C118S protein (Homo sapiens, UniProt P01116, C118S/G12C); assay: Covalent cysteine 12 modification by MALDI-TOF MS, GTP-loaded KRAS G12C; format: binding; conditions: 15 minutes reaction time point
T1 construct: KRAS4b (amino acids 1-169) G12C/C118S protein; made in house
Experimental: (§1) Biological Example 1: Covalent Cysteine 12 Modification Analysis Using Matrix Assisted Laser Desorption Ionization-Time of Flight Mass Spectrometry (MALDI-TOF MS)
(§2) MALDI-TOF MS analysis was performed using 1 μM protein (KRAS G12C), and 1:2.5 protein to compound ratio.
(§3) Reaction: 1 μM of GppNHp, GTP, or GDP-loaded KRAS4b (amino acids 1-169) G12C/C118S protein (produced in-house by Protein Expression Laboratory, FNLCR/Leidos Biomed) in 20 mM 4-(2-hydroxyethyl)-1-piperazineethanesulfonic acid (HEPES) buffer containing 150 mM NaCl, 1 mM MgCl2, pH 7.3 was prepared freshly before assay. Twelve-μL aliquots of protein were dispensed onto low volume 384-well plate, then 30 nL of tested compounds from 1 mM DMSO stocks were added to appropriate wells using ECHO 555 acoustic liquid handler (Labcyte Inc.). For each reaction/assay, three blanks were prepared by mixing 12 μL of protein solution with 30 nL DMSO. The contents of the wells were carefully mixed by aspiration, and then each plate was sealed with an adhesive cover, centrifuged at 2000 g for 1 minute, and kept in the dark at room temperature until 5 min, 15 min, 30 min, 2 h, or 6 h collections.
(§4) Target pretreatment: Before each assay MALDI target (Bruker MPT 384 ground steel BC) was pre-treated by pipetting on each spot 0.75 μL of saturated sinapinic acid in acetonitrile (ACN).
(§5) Sample preparation: At collection time point, 2 μL of reaction mixtures were pipetted out into 15 μL MALDI matrix solution (saturated solution of sinapinic acid in 1:1 ACN:water solution containing 0.75% trifluoroacetic acid (TFA)) deposited on 384 well polypropylene plate. Resulting solution was mixed by aspiration, centrifuged at 2000 g for 1 minute, then 1.5 μL aliquots were dispensed on pre-treated MALDI target using Beckman Coulter Biomek FXP 96/384-Span-8 Laboratory Automation Workstation. Finally, the MALDI target was dried under mild vacuum to produce spots with fine crystalline structure.
(§6) Measurements: MALDI-TOF measurements were performed on a Bruker Daltonics rapiflex Tissuetyper TOF-TOF mass spectrometer using linear mode and mass range from 18.6 to 21.6 kDa. Detector gain was set to 3.3×(483 V), sample rate to 5 GS/s, real time smoothing to medium (175 MHz), laser smart beam pattern was set to: “MS Thin Layer M5”, and the laser frequency was 10000 Hz. Spectra were automatically collected using custom AutoXecute method. Laser power was auto adjusted using fuzzy control. The peak selection range was set to be between 19000 and 21500 Da. Peak evaluation uses half width parameter set to be smaller than 40 Da for processed spectrograms (centroid peak detection; smoothed by SavitzkyGolay algorithm using 7 m/z width and 2 cycles; baseline was subtracted using median algorithm with flatness 1 and median level 0.01). Fuzzy control used Proteins/Oligonucleotides protocol with minimum half width 1/10 times above threshold. Up to 40000 satisfactory shots were collected in 10000 shot steps. Dynamic termination was implemented to finish data collection when peak signal/noise ratio was reaching value of 50.
(§7) Spectra processing: Spectra were smoothed by SavitzkyGolay algorithm using 7 m/z width and three cycles. Centroid peak detection algorithm was used with signal to noise threshold set to 6, relative intensity threshold 4%, peak width 10 m/z and median baseline subtraction using flatness of 1 and median level of 0.01. Peak intensity and area under the peak were evaluated and recorded for all peaks between 19,300 Da and 21,550 Da.
(§8) Calculation of percent modification: Percent modification was calculated as a ratio of peak height for protein modified by compound to sum of peak height of remaining protein plus peak height for protein modified by compound. If multiple modifications were observed each was calculated as a ratio of peak height for given modification versus sum of peak heights for all observed protein species. Data reported in Table 4 are from 15 minutes reaction time point. […]

| Structure (SMILES) | GTP-KRAS G12C percent of modification |
| --- | --- |
| C[C@@H]1CN(c2nc(OC[C@@]34CCCN3C[C@H](F)C4)nc3c(F)c(-c4ccc(F)c5sc(N)c(C#N)c45)c(Cl)cc23)[C@@H](C)CN1C(=O)/C=C/c1nc(C(C)(F)F)no1 [Compound 191] | B (50≤percent of modification <70%) |
| C=CC(=O)N1CC[C@@H](N(C)c2nc(O[C@@H](C)[C@@H]3[C@@H](OC)CCN3C)nc3c(F)c(-c4ccc(F)c5sc(N)c(C#N)c45)c(C(F)(F)F)cc23)[C@H]1C [Compound 193] | A (percent of modification ≥70%) |
| C=CC(=O)N1CC[C@@H](N(C)c2nc(O[C@@H](C)[C@@H]3C[C@@H](OC)CN3C)nc3c(F)c(-c4ccc(F)c5sc(N)c(C#N)c45)c(Cl)cc23)[C@H]1C [Compound 194] | A (percent of modification ≥70%) |
| C=CC(=O)N1CC[C@@H](N(C)c2nc(O[C@@H](C)[C@@H]3[C@@H](OC)CCN3C)nc3c(F)c(-c4ccc(F)c5sc(N)c(C#N)c45)c(Cl)cc23)[C@H]1C [Compound 195] | A (percent of modification ≥70%) |
| C=CC(=O)N1CC[C@@H](N(C)c2nc(OC[C@@H]3[C@@H](OC)CCN3C)nc3c(F)c(-c4ccc(F)c5sc(N)c(C#N)c45)c(Cl)cc23)[C@H]1C [Compound 196] | A (percent of modification ≥70%) |
| C=CC(=O)N1CC[C@@H](N(C)c2nc(OC[C@@H]3[C@@H](OC)CCN3C)nc3c(F)c(-c4ccc(F)c5sc(N)c(C#N)c45)c(C(F)(F)F)cc23)[C@H]1C [Compound 197] | A (percent of modification ≥70%) |

target: T2, GDP-loaded KRAS4b (amino acids 1-169) G12C/C118S protein (Homo sapiens, UniProt P01116, C118S/G12C); assay: Covalent cysteine 12 modification by MALDI-TOF MS, GDP-loaded KRAS G12C; format: binding; conditions: 15 minutes reaction time point
T2 construct: KRAS4b (amino acids 1-169) G12C/C118S protein; made in house
Experimental: as §1, §2, §3, §4, §5, §6, §7, §8

| Structure (SMILES) | GDP-KRAS G12C percent of modification |
| --- | --- |
| C[C@@H]1CN(c2nc(OC[C@@]34CCCN3C[C@H](F)C4)nc3c(F)c(-c4ccc(F)c5sc(N)c(C#N)c45)c(Cl)cc23)[C@@H](C)CN1C(=O)/C=C/c1nc(C(C)(F)F)no1 [Compound 191] | B (50≤percent of modification <70%) |
| C=CC(=O)N1CC[C@@H](N(C)c2nc(O[C@@H](C)[C@@H]3[C@@H](OC)CCN3C)nc3c(F)c(-c4ccc(F)c5sc(N)c(C#N)c45)c(C(F)(F)F)cc23)[C@H]1C [Compound 193] | A (percent of modification ≥70%) |
| C=CC(=O)N1CC[C@@H](N(C)c2nc(O[C@@H](C)[C@@H]3C[C@@H](OC)CN3C)nc3c(F)c(-c4ccc(F)c5sc(N)c(C#N)c45)c(Cl)cc23)[C@H]1C [Compound 194] | A (percent of modification ≥70%) |
| C=CC(=O)N1CC[C@@H](N(C)c2nc(O[C@@H](C)[C@@H]3[C@@H](OC)CCN3C)nc3c(F)c(-c4ccc(F)c5sc(N)c(C#N)c45)c(Cl)cc23)[C@H]1C [Compound 195] | A (percent of modification ≥70%) |
| C=CC(=O)N1CC[C@@H](N(C)c2nc(OC[C@@H]3[C@@H](OC)CCN3C)nc3c(F)c(-c4ccc(F)c5sc(N)c(C#N)c45)c(Cl)cc23)[C@H]1C [Compound 196] | A (percent of modification ≥70%) |
| C=CC(=O)N1CC[C@@H](N(C)c2nc(OC[C@@H]3[C@@H](OC)CCN3C)nc3c(F)c(-c4ccc(F)c5sc(N)c(C#N)c45)c(C(F)(F)F)cc23)[C@H]1C [Compound 197] | A (percent of modification ≥70%) |

target: T3, GppNHp-loaded KRAS4b (amino acids 1-169) G12C/C118S protein (Homo sapiens, UniProt P01116, C118S/G12C); assay: Covalent cysteine 12 modification by MALDI-TOF MS, GppNHp-loaded KRAS G12C; format: binding; conditions: 15 minutes reaction time point
T3 construct: KRAS4b (amino acids 1-169) G12C/C118S protein; made in house
Experimental: as §1, §2, §3, §4, §5, §6, §7, §8

| Structure (SMILES) | GppNHp-KRAS G12C percent of modification |
| --- | --- |
| C[C@@H]1CN(c2nc(OC[C@@]34CCCN3C[C@H](F)C4)nc3c(F)c(-c4ccc(F)c5sc(N)c(C#N)c45)c(Cl)cc23)[C@@H](C)CN1C(=O)/C=C/c1nc(C(C)(F)F)no1 [Compound 191] | B (50≤percent of modification <70%) |
| C=CC(=O)N1CC[C@@H](N(C)c2nc(O[C@@H](C)[C@@H]3[C@@H](OC)CCN3C)nc3c(F)c(-c4ccc(F)c5sc(N)c(C#N)c45)c(C(F)(F)F)cc23)[C@H]1C [Compound 193] | A (percent of modification ≥70%) |
| C=CC(=O)N1CC[C@@H](N(C)c2nc(O[C@@H](C)[C@@H]3C[C@@H](OC)CN3C)nc3c(F)c(-c4ccc(F)c5sc(N)c(C#N)c45)c(Cl)cc23)[C@H]1C [Compound 194] | A (percent of modification ≥70%) |
| C=CC(=O)N1CC[C@@H](N(C)c2nc(O[C@@H](C)[C@@H]3[C@@H](OC)CCN3C)nc3c(F)c(-c4ccc(F)c5sc(N)c(C#N)c45)c(Cl)cc23)[C@H]1C [Compound 195] | A (percent of modification ≥70%) |
| C=CC(=O)N1CC[C@@H](N(C)c2nc(OC[C@@H]3[C@@H](OC)CCN3C)nc3c(F)c(-c4ccc(F)c5sc(N)c(C#N)c45)c(Cl)cc23)[C@H]1C [Compound 196] | A (percent of modification ≥70%) |
| C=CC(=O)N1CC[C@@H](N(C)c2nc(OC[C@@H]3[C@@H](OC)CCN3C)nc3c(F)c(-c4ccc(F)c5sc(N)c(C#N)c45)c(C(F)(F)F)cc23)[C@H]1C [Compound 197] | A (percent of modification ≥70%) |
